Results on 3 compounds are retold here after paper PMC9501899 (Journal of the American Chemical Society, 2022).

In general, IC50 refers to the point on the concentration scale where inhibition reaches its midpoint. Low values mean higher potency, high ones lower potency.

The target in one series is T1, LRRK2-NanoLuc (Homo sapiens, UniProt Q5S007).
T1 construct: host or cells: HEK293
The series can be described thus: NanoBRET LRRK2 target engagement assay in HEK293 cells. Format: binding. The conditions noted are these: for IC50: permeabilized HEK293 cells. Here is the method: Figure 9 Binding affinities to VHL and LRRK2. (A) Binding affinity of the tested compounds to VHL using the FP assay. […] NanoBRET target engagement assays of tested compounds to VHL (B) and LRRK2 (C) in permeabilized and live-cell modes. The indicated compounds were titrated into HEK293 cells transfected with VHL-NanoLuc (B) or LRRK2-NanoLuc fusion (C) in the presence of VHL tracer (B) or LRRK2 tracer (C). 0.25 and 0.5 μM VHL tracers were used for the permeabilized and live mode VHL engagement assays separately. 0.125 and 0.5 μM of LRRK2 tracer were used for the permeabilized and live mode LRRK2 engagement assays separately. The fractional occupancy of the tracers is plotted against the tested compounds’ concentrations and fitted into “nonlinear regression, one site-log IC50” to obtain the IC50 values of each compound against both permeabilized and live cells, separately. Data points are presented as mean ± SEM from three independent experiments. (D) The IC50 ratios between permeabilized and live mode target engagements of each compound were used to compare their permeabilities.
For VHL and LRRK2 target engagement experiments in live and permeabilized cells, the HEK293 cells were transfected with the VHL-NanoLuc fusion vector (Promega, N275A) or LRRK2-NanoLuc fusion vector (Promega, NV3401) following Promega’s protocol and seeded into a white 384-well plate (Corning3570) at a density of 6000 cells/well. […] The filtered luminescence was measured within 10 min following the addition of the substrate on a GloMax Discover microplate reader (Promega) or a PHERAstar (BMG LABTECH) plate reader equipped with a 450 nm bandpass filter (donor) and a 600 nm long-pass filter (acceptor). […] The plates were then cooled down, and a NanoBRET NanoGlo Substrate and an Extracellular NanoLuc Inhibitor (Promega, N2160) were added before performing the same NanoBRET reading as the permeabilized mode on plate readers. […]
(In general: BRET reads energy transfer from a luciferase to a nearby fluorophore.)

The target in series [1] is T2, LRRK2-NanoLuc with VCB protein (Homo sapiens, UniProt P40337+Q5S007).
T2 construct: host or cells: HEK293 (digitonin-permeabilized), recombinant VCB added
The series can be described thus: NanoBRET-based ternary binding and cooperativity assay. The conditions noted are these: for IC50: compound preincubated with VCB, lysate of HEK293 cells, LRRK2 tracer; for cooperativity (α): IC50 ratio without/with VCB. The method, then:
(A). Schematic illustration of the binary and ternary LRRK2 engagement assays. […] The fractional occupancy of the tracer is plotted against the concentrations of the compounds and fitted into the “nonlinear regression, one site-log IC50” model in GraphPad to obtain the IC50 values. The IC50 ratio between the blue curve and red cure is calculated as cooperativity (α). […] The NanoBRET signal was plotted against the compounds’ concentrations and fitted into “nonlinear regression, Gaussian” model in GraphPad. Error bars are mean ± SEM from three biological independent experiments.
Titration of PROTACs to the lysed cells and LRRK2 tracer in the presence or absence of recombinant VCB protein (VHL complexed with elongin B–elongin C) gives ternary and binary binding affinities of PROTACs for LRRK2, respectively. Similarly, the ternary complex formation assay also used LRRK2-NanoLuc transiently expressed in HEK293 as the BRET donor, but the acceptor was recombinant VCB protein labeled with BODIPY^576/589via the NHS ester-activated cross-linking reaction. PROTACs that can bridge LRRK2 and VCB together will produce a BRET signal (Figure 10E).
The HEK293 cells were transfected with the LRRK2-NanoLuc fusion vector (Promega, NV3401) following Promega’s protocol and seeded into a white 384-well plate (Corning3570) at a density of 6000 cells/well. The cells were then treated with 50 μg/mL of digitonin, 125 nM of LRRK2 tracer, testing compounds at decreasing concentrations (11 concentrations with a 2-fold serial dilution starting from 10 μM) or testing compounds and VCB mix (11 concentrations with a 2-fold serial dilution starting from 10 μM compound). The first six concentrations of VCB start from 32 μM with a 2-fold dilution, while the last five concentrations of VCB were kept fixed at 1 μM. The NanoBRET NanoGlo Substrate (Promega, N157C) was added at concentrations recommended by the manufacturer’s protocol. In the maximum signal control samples (DMSO control), DMSO was added instead of testing compounds. In the minimum signal control samples (no tracer control), DMSO and LRRK2 tracer dilution buffer were used to replace testing compounds and LRRK2 tracer separately. The filtered luminescence was measured within 10 min following the addition of the substrate on a PHERAstar (BMG LABTECH) plate reader equipped with a 450 nm bandpass filter (donor) and a 600 nm long-pass filter (acceptor). The fractional occupancy was calculated according to the equation: fractional occupancy = (mBRETtesting compound – mBRETno tracer control)/(mBRETDMSO control – mBRETno tracer control).

T2 sequence (Q5S007 whole entry): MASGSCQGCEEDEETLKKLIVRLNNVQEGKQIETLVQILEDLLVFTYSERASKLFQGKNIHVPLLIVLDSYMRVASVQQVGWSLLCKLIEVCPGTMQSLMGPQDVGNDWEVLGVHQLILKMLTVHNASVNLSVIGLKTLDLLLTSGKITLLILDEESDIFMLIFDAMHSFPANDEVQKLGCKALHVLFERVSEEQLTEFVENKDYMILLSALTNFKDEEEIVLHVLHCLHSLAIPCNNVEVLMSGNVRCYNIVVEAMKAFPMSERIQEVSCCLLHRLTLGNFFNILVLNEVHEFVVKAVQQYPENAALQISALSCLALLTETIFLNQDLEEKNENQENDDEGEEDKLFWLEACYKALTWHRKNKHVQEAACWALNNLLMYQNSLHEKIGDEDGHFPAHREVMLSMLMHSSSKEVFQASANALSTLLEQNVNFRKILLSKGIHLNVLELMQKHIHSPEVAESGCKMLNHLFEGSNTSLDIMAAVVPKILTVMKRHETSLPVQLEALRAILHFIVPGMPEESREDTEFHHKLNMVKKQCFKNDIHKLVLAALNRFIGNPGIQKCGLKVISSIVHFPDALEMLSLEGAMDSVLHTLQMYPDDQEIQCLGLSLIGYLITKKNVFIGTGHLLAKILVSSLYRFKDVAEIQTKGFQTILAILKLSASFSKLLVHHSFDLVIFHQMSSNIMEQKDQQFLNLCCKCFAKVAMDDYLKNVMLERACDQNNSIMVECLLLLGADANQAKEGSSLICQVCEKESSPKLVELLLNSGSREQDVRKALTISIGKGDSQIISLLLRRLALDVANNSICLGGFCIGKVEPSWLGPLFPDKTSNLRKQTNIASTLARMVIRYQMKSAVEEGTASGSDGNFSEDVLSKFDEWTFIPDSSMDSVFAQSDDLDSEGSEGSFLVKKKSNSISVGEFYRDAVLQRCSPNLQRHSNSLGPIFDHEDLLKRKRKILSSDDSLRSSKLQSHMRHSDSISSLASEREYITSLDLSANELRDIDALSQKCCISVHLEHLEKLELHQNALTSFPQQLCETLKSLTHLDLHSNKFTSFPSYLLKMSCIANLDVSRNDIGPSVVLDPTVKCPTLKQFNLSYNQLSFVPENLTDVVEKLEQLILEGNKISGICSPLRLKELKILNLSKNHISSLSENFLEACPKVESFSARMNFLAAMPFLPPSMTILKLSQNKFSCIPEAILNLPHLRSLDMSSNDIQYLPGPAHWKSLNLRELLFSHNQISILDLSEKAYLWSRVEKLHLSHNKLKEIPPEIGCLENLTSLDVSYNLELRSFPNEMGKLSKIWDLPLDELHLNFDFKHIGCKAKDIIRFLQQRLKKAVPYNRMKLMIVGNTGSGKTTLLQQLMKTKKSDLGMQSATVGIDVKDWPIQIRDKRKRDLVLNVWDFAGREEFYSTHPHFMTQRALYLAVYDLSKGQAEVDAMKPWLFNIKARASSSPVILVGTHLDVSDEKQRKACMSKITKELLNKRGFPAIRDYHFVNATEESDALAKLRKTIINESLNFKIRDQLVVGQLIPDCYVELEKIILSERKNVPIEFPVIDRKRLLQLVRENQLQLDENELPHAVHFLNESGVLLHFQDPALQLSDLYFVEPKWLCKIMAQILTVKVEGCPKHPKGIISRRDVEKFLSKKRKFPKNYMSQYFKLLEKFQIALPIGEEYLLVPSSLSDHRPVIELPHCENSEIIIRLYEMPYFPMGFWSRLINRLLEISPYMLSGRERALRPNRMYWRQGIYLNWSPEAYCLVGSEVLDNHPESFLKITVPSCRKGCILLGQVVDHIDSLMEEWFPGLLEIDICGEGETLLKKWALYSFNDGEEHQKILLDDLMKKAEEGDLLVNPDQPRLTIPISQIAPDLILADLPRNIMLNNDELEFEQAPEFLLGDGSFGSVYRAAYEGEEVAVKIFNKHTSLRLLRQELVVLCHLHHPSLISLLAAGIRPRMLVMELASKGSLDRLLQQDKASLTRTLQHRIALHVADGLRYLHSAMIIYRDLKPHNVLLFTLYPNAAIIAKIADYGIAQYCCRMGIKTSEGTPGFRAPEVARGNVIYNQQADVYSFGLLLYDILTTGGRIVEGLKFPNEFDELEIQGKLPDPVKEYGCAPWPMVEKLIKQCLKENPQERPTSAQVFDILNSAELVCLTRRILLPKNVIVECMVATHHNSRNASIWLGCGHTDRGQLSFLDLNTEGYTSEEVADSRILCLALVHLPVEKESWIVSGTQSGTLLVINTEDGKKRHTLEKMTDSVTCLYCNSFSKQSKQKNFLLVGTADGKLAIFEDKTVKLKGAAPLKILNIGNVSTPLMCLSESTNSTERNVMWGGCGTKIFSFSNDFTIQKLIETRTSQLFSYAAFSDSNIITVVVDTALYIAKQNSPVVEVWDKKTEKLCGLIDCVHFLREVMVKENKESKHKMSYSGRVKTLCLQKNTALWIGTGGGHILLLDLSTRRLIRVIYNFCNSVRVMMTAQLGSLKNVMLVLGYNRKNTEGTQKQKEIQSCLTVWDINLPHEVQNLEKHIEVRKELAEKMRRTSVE
T2 sequence (P40337 54-213 limits assumed): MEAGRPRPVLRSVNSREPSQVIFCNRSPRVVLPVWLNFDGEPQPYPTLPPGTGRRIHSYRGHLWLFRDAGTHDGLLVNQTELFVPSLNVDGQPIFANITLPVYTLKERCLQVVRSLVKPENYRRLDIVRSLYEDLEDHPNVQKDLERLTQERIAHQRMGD
T2 sequence (Q15370 1-104 partner limits assumed): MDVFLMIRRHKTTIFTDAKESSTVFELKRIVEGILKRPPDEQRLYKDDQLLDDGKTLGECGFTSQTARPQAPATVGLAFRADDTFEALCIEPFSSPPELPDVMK
T2 sequence (Q15369 17-112 partner limits assumed): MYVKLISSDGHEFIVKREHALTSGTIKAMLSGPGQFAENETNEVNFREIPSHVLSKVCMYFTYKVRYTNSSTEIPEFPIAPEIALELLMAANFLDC
T1 sequence (Q5S007 whole entry): as the sequence (Q5S007 whole entry) above

Regarding `CNc1nc(Nc2ccc(C(=O)N3CCN(CCOCCOCCSC(C)(C)[C@H](NC(=O)C4(F)CC4)C(=O)N4C[C@H](O)C[C@H]4C(=O)NCc4ccc(-c5scnc5C)cc4)CC3)cc2OC)ncc1Cl` [SD75], at LRRK2-NanoLuc (ratio used to compare permeabilities), the “LRRK2 IC50 Permeabilized/IC50 Live” value was determined as 0.43. The IC50 in series [1] was found to be 1.4 µM.

Consider `CNc1nc(Nc2ccc(C(=O)N3CCN(C[C@H]4CC[C@H](CSC(C)(C)[C@H](NC(=O)C5(F)CC5)C(=O)N5C[C@H](O)CC5C(=O)NCc5ccc(-c6scnc6C)cc5)CC4)CC3)cc2OC)ncc1Cl` (stereo partly drawn) [XL01126, (2S,4R)-1-((R)-3-((((1R,4R)-4-((4-(4-((5-Chloro-4-(methylamino)pyrimidin-2-yl)amino)-3-methoxybenzoyl)piperazin-1-yl)methyl)cyclohexyl)methyl)thio)-2-(1-fluorocyclopropane-1-carboxamido)-3-methylbutanoyl)-4-hydroxy-N-(4-(4-methylthiazol-5-yl)benzyl)pyrrolidine-2-carboxamide], for which the IC50 was found to be 2.6 µM at LRRK2-NanoLuc and 0.35 µM in series [1]. In addition, in series [1], the “cooperativity (α)” value amounted to 5.7.

With `CNc1nc(Nc2ccc(C(=O)N3CCN(C[C@H]4CC[C@@H](CSC(C)(C)[C@H](NC(=O)C5(F)CC5)C(=O)N5C[C@H](O)CC5C(=O)NCc5ccc(-c6scnc6C)cc5)CC4)CC3)cc2OC)ncc1Cl` (some centres unmarked) [XL01134], the IC50 against LRRK2-NanoLuc stood at 2 µM. Moreover, in series [1], the “cooperativity (α)” value is given as 1.4 and the IC50 amounted to 0.79 µM.
